Columns and labels:
Test in all cases: relative viability (nuclei count vs DMSO), 5 days (fraction); higher = more cells survive
[1] = compound: CCN1CCN(c2ccc(Nc3cc(N(C)C(=O)Nc4c(Cl)c(OC)cc(OC)c4Cl)ncn3)cc2)CC1 [BGJ398] + COc1cccc2cc(-c3nc([C@H]4CC[C@H](C(=O)O)CC4)n4ncnc(N)c34)[nH]c12 [OSI-027] (partner 0.5 µM)
Method in brief: (§1)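 Dosing by pin tool came one day after lung cancer cell lines were seeded in 1536-well plates, using either one drug or a fixed anchor-drug dose plus five library-drug doses (not always all listed) in √10 steps. After 5 days, nuclei were counted on 4× images. Relative viability is treated-well nuclei count divided by vehicle-well nuclei count, and values are medians of duplicate plates.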

[2] = compound: CCN1CCN(c2ccc(Nc3cc(N(C)C(=O)Nc4c(Cl)c(OC)cc(OC)c4Cl)ncn3)cc2)CC1 [BGJ398] + O=C(CCCCCCC(=O)Nc1ccccc1)NO [Vorinostat] (partner 1 µM)
Method in brief: as §1

[3] = compound: CCN1CCN(c2ccc(Nc3cc(N(C)C(=O)Nc4c(Cl)c(OC)cc(OC)c4Cl)ncn3)cc2)CC1 [BGJ398] + Cc1nc(NC(=O)N2CCC[C@H]2C(N)=O)sc1-c1ccnc(C(C)(C)C(F)(F)F)c1 [Alpelisib] (partner 2 µM)
Method in brief: as §1

[4] = compound: CCN1CCN(c2ccc(Nc3cc(N(C)C(=O)Nc4c(Cl)c(OC)cc(OC)c4Cl)ncn3)cc2)CC1 [BGJ398] + C[C@]1(O)C[C@@H](c2nc(-c3ccc4ccc(-c5ccccc5)nc4c3)c3c(N)nccn32)C1 [Linsitinib] (partner 1 µM)
Method in brief: as §1

Row | Cell Line | relative viability ([1]; first compound 0.01 µM) | relative viability ([1]; first compound 0.03162 µM) | relative viability ([1]; first compound 0.1 µM) | relative viability ([1]; first compound 0.3162 µM) | relative viability ([1]; first compound 1 µM) | relative viability ([2]; first compound 0.01 µM) | relative viability ([2]; first compound 0.03162 µM) | relative viability ([2]; first compound 0.1 µM) | relative viability ([2]; first compound 0.3162 µM) | relative viability ([2]; first compound 1 µM) | relative viability ([3]; first compound 0.01 µM) | relative viability ([3]; first compound 0.03162 µM) | relative viability ([3]; first compound 0.1 µM) | relative viability ([3]; first compound 0.3162 µM) | relative viability ([3]; first compound 1 µM) | relative viability ([4]; first compound 0.01 µM) | relative viability ([4]; first compound 0.03162 µM) | relative viability ([4]; first compound 0.1 µM) | relative viability ([4]; first compound 0.3162 µM) | relative viability ([4]; first compound 1 µM)
1 | NCI-H522 | 0.686 | 0.608 | 0.575 | 0.664 | 0.687 | 0.926 | 0.802 | 0.935 | 1.01 | 0.888 |  |  |  |  |  |  |  |  |  | 
2 | HCC-15 | 0.689 | 0.72 | 0.693 | 0.675 | 0.554 | 0.809 | 0.795 | 0.779 | 0.824 | 0.759 | 0.88 | 0.909 | 0.976 | 0.91 | 1.02 | 0.981 | 0.968 | 0.921 | 0.981 | 0.936
3 | A-427 | 0.375 | 0.365 | 0.309 | 0.235 | 0.285 | 0.909 | 0.953 | 0.895 | 0.698 | 0.713 | 1.08 | 1.07 | 0.944 | 0.848 | 0.662 | 1.12 | 1.15 | 1.15 | 0.884 | 0.799
4 | NCI-H2228 | 0.525 | 0.535 | 0.67 | 0.501 | 0.717 | 0.583 | 0.761 | 0.706 | 0.531 | 0.542 | 0.609 | 0.616 | 0.776 | 0.718 | 0.696 | 0.63 | 0.438 | 0.19 | 0.852 | 0.719
5 | NCI-H1734 | 0.589 | 0.645 | 0.675 | 0.579 | 0.702 | 0.794 | 0.913 | 0.848 | 0.841 | 0.907 | 0.678 | 0.654 | 0.725 | 0.676 | 0.742 | 0.816 | 0.873 | 0.907 | 0.864 | 0.917

Reference: the supplement of paper PMC10307832
